Reference: patent US20100330081A1, “CRIPTO BINDING MOLECULES” (priority 2007, published 2010)

Test system: CT-3 xenograft tumors (primary human colon tumor)
Experiment: CT-3 human colon tumor xenograft, combination with 5-fluorouracil (Example 2)
Assay type: in vivo, mice
Settings: 5-fluorouracil alone, single dose 30 mg/kg/inj IV Day 15; study terminated Day 34
From the text: Two hundred eighteen (218) female SCID beige (C.B.-17/IcrHsd-Prkcd Lyst Skid Beige) mice (Harlan Sprague Dawley, Madison, Wis.) were started on the study at six to seven weeks of age. Animals were acclimated to the laboratory for at least two days prior to implantation of the tumor. Housing was in ventilated cage racks, and food and water were allowed ad libitum.
CT-3 tumor fragments from a primary human colon tumor were originally obtained from Sera Care, Inc (Oceanside, Calif.) (sent by Peter Chu, Biogen Idec, San Diego). A serially transplanted in-vivo xenograft line was established at Biogen Idec, Inc. and fragments from the third xenograft generation were cryopreserved. […]
On Day −1, the mice were implanted with BioMedics animal ID chips (Model IMI-1000; Seaford, Del.) SC on the left flank. […] Tumor size and body weight measurements were recorded at least twice weekly beginning on […]. When the tumors measured a minimum of 100 mg (Day 15), mice were randomized to treatment and control groups (see Table 2) based on tumor size and excluding tumors with non-progressive growth. […]
Tumor measurements were determined using digital calipers. Body weights and tumor size measurements were recorded on Day 6 and were continued twice weekly until the termination of the study. […]

O=c1[nH]cc(F)c(=O)[nH]1 [5-fluorouracil]
inhibition of tumor growth (change in tumor weight): significantly inhibited tumor growth throughout the study
